According to patent US4605662A, “1-substituted pyrrolizidine derivatives and antiarrhythmic use thereof” (Suntory Ltd., priority 1982, dated 1986):

How the values were obtained:
[1] = 50% lethal dose (LD50) by Up and Down Method in mice, and therapeutic index; type: in vivo; settings: mouse, in vivo; Up and Down Method; male ddy mice 18 to 22 g
From the text: (§1) The 50% lethal doses (median lethal doses, LD50) were computed by the "Up and Down Method" (Pharmacological Experiment, compiled by Takagi and Ozawa, pp. 204, Nanzando, 1972) using male mice of the ddy strain weighing 18 to 22 g, and the ratios of the LD50 to ED50 values were expressed as the therapuetic indices, as presented in Table 1.

[2] = test system: ventricular flutter and fibrillation; test: Protection against chloroform-induced ventricular arrhythmias in mice (Lawson method), subcutaneous; type: in vivo, ddy strain); settings: 30 min before chloroform inhalation, male ddy mice; for ED50 / ED20 / ED40: Mus musculus, sc; for ED50: read-out: ED50 (95% confidence limits), antiarrhythmic activity; for ED20: read-out: ED20, antiarrhythmic activity; for ED40: read-out: ED40, antiarrhythmic activity
Description: In accordance with the method described by J. W. Lawson (Journal of Pharmacology and Experimental Therapeutics, vol. 160, pp. 22, 1968), male mice of the ddy strain weighing 16 to 30 g were allowed to inhale chloroform to induce ventricular arrhythmias. At the time when they ceased to breathe, the electrocardiogram of each animal was recorded to observe the ventricular flutter and fibrillation. The abnormalities of the ventricles observed in these animals can be prevented by pretreatment with substances which have antiarrhythmic activity. The compounds of this invention were subcutaneously injected in 4-5 different doses to groups of 29 to 40 mice. Thirty minutes later, the mice were subjected to inhalation of chloroform to induce arrhythmias, and the protection by each dose against the ventricular flutter and fibrillation were expressed as percent. […]

[3] = test system: male mice of the ddy strain; test: 50% lethal dose (LD50) by Up and Down Method in mice, and therapeutic index; type: in vivo; settings: LD50/ED50
From the text: as §1

Cc1ccccc1NC(=O)[C@@H]1CCN2CCC[C@@H]12 (relative stereo)
LD50 [1]: > 500 mg/kg | ED50 ([2]; Litchfield and Wilcoxon): > 100 mg/kg | ED20 [2]: 100 mg/kg

CCc1cccc(CC)c1NC(=O)[C@@H]1CCN2CCC[C@@H]12 (relative stereo) [XI]
LD50 [1]: 244 mg/kg | Therapeutic index (ratio of LD50 to ED50) [3]: 6.24 | ED50 ([2]; Litchfield and Wilcoxon): 38 mg/kg

O=C(Nc1c(Br)cccc1Br)[C@@H]1CCN2CCC[C@@H]12 (relative stereo) [XIV]
LD50 [1]: 468 mg/kg | Therapeutic index (ratio of LD50 to ED50) [3]: 10.88 | ED50 ([2]; Litchfield and Wilcoxon): 43 mg/kg

COc1ccc(OC)c(NC(=O)[C@@H]2CCN3CCC[C@@H]23)c1 (relative stereo) [XII]
LD50 [1]: > 500 mg/kg | ED50 ([2]; Litchfield and Wilcoxon): > 100 mg/kg | ED40 [2]: 100 mg/kg

Cc1cc(C)cc(NC(=O)[C@@H]2CCN3CCC[C@@H]23)c1 (relative stereo) [X]
LD50 [1]: > 500 mg/kg | ED50 ([2]; Litchfield and Wilcoxon): 100 mg/kg | ED20 [2]: > 100 mg/kg

COc1ccc(NC(=O)[C@@H]2CCN3CCC[C@@H]23)cc1 (relative stereo) [IV]
LD50 [1]: > 500 mg/kg | ED50 ([2]; Litchfield and Wilcoxon): > 100 mg/kg | ED20 [2]: 100 mg/kg

COc1cccc(NC(=O)[C@@H]2CCN3CCC[C@@H]23)c1 (relative stereo) [III]
LD50 [1]: > 500 mg/kg | ED50 ([2]; Litchfield and Wilcoxon): > 100 mg/kg | ED40 [2]: 100 mg/kg

Cc1cccc(NC(=O)[C@@H]2CCN3CCC[C@@H]23)c1C (relative stereo) [VII]
LD50 [1]: > 500 mg/kg | ED50 ([2]; Litchfield and Wilcoxon): > 100 mg/kg | ED20 [2]: 100 mg/kg

Cc1cc(C)c(NC(=O)[C@@H]2CCN3CCC[C@@H]23)c(C)c1 (relative stereo) [XV]
LD50 [1]: 394 mg/kg | ED50 ([2]; Litchfield and Wilcoxon): > 100 mg/kg | ED20 [2]: 100 mg/kg

O=C(Nc1ccccc1Cl)[C@@H]1CCN2CCC[C@@H]12 (relative stereo) [V]
LD50 [1]: 263 mg/kg | ED50 (95% confidence limits), antiarrhythmic activity ([2]; Litchfield and Wilcoxon): 100 mg/kg | ED50 ([2]; Litchfield and Wilcoxon): > 100 mg/kg

Cc1ccc(C)c(NC(=O)[C@@H]2CCN3CCC[C@@H]23)c1 (relative stereo) [VIII]
LD50 [1]: > 500 mg/kg | ED50 ([2]; Litchfield and Wilcoxon): > 100 mg/kg | ED20 [2]: 100 mg/kg

COc1ccccc1NC(=O)[C@@H]1CCN2CCC[C@@H]12 (relative stereo) [II]
LD50 [1]: > 500 mg/kg | ED50 ([2]; Litchfield and Wilcoxon): 74 mg/kg

O=C(Nc1c(Cl)cccc1Cl)[C@@H]1CCN2CCC[C@@H]12 (relative stereo) [XIII]
LD50 [1]: 263 mg/kg | Therapeutic index (ratio of LD50 to ED50) [3]: 6.92 | ED50 ([2]; Litchfield and Wilcoxon): 38 mg/kg

O=C(Nc1ccccc1Br)[C@@H]1CCN2CCC[C@@H]12 (relative stereo) [VI]
LD50 [1]: > 500 mg/kg | ED50 ([2]; Litchfield and Wilcoxon): > 100 mg/kg | ED40 [2]: 100 mg/kg

Cc1cccc(C)c1NC(=O)[C@@H]1CCN2CCC[C@@H]12 (relative stereo) [IX]
LD50 [1]: 447 mg/kg | Therapeutic index (ratio of LD50 to ED50) [3]: 15.4 | ED50 ([2]; Litchfield and Wilcoxon): 29 mg/kg
